Values quoted from earlier work as cited in article PMC5111365 (The Analyst, 2016).
No end group written: not given here. *: point of attachment. 5FAM = O=C1OC2(c3ccc(O)cc3Oc3cc(O)ccc32)c2ccc(C(=O)*)cc21

Assays:
[1] = 3 mg mL^-1 total protein, data from previous work
[2] = target: Abl-1 human recombinant protein (Homo sapiens, UniProt P00519); settings: 12 nM kinase; data from previous work
Sequence of Abl-1 human recombinant protein (P00519 whole entry): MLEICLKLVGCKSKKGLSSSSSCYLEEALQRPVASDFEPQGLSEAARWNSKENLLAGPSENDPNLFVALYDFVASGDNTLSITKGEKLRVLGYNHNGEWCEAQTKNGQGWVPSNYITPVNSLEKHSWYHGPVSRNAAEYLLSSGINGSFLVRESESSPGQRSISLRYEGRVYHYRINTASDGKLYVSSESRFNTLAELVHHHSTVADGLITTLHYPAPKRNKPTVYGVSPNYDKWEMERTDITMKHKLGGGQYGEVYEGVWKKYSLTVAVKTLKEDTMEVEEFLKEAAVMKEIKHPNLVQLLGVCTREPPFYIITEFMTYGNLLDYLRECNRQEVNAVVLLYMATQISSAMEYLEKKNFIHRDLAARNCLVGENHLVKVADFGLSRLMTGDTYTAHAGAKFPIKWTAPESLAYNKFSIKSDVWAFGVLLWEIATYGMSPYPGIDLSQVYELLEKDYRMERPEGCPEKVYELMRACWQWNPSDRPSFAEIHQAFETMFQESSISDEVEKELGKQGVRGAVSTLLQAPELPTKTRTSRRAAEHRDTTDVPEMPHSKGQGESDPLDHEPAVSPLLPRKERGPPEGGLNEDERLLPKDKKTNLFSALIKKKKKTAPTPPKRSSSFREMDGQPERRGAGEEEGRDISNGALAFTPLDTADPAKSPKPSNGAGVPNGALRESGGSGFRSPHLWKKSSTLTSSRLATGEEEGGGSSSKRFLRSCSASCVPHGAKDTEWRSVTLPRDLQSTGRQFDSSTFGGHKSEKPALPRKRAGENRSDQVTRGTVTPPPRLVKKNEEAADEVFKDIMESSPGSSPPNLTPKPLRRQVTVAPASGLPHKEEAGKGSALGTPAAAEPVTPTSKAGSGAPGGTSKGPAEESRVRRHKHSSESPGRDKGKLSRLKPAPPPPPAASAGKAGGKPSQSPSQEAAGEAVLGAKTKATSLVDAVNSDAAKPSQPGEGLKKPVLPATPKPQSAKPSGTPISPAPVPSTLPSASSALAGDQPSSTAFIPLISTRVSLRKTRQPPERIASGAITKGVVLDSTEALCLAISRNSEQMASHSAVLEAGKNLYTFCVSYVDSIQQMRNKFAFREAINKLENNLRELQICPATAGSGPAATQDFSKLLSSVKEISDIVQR

t1/2, time at which 50% of the peptide was degraded in the cytosolic lysate [1]: 1.3 min
t50% P, time required for 50% of the peptide to be phosphorylated by Abl-1 kinase [2]: 190 min
Substance: 5FAM-GGAYAAPFKKKA [III-67B]
